Tested on: MCF-7 breast cancer cells
Assay: Microarray gene expression analysis (Agilent whole human genome 4 x 44K; compound vs DMSO, LIMMA log2 fold change)
Assay type: cell-based

**Q.** Which results are given for `Oc1cccc(-c2nc(N3CCOCC3)c3oc4ncccc4c3n2)c1` [PI-103]?
**A.** BCL11B log2FC (Apoptosis genes, Gene 64919): 0.237; MRPL41 log2FC (Apoptosis genes, Gene 64975): -0.467; PINK1 log2FC (Apoptosis genes, Gene 65018): 1.918; PRAMEF1 log2FC (Apoptosis genes, Gene 65121): 0.050; PRAMEF2 log2FC (Apoptosis genes, Gene 65122): 0.021; UBE2Z log2FC (Apoptosis genes, Gene 65264): -0.420; TMEM109 log2FC (Apoptosis genes, Gene 79073): -0.554; CHAC1 log2FC (Apoptosis genes, Gene 79094): 0.106; TNIP2 log2FC (Apoptosis genes, Gene 79155): -0.233; PLEKHF1 log2FC (Apoptosis genes, Gene 79156): -0.466; THOC6 log2FC (Apoptosis genes, Gene 79228): -0.153; BCL2L14 log2FC (Apoptosis genes, Gene 79370): -0.153; BIRC7 log2FC (Apoptosis genes, Gene 79444): -0.015; ELMO3 log2FC (Apoptosis genes, Gene 79767): -0.530; SLTM log2FC (Apoptosis genes, Gene 79811): 0.713; ZC3H12A log2FC (Apoptosis genes, Gene 80149): -1.248; RNF34 log2FC (Apoptosis genes, Gene 80196): -0.370; ELL3 log2FC (Apoptosis genes, Gene 80237): 1.045; CPEB4 log2FC (Apoptosis genes, Gene 80315): 0.553; COL18A1 log2FC (Apoptosis genes, Gene 80781): 0.023; SGPP1 log2FC (Apoptosis genes, Gene 81537): -0.248; SHARPIN log2FC (Apoptosis genes, Gene 81858): -0.118; APH1B log2FC (Apoptosis genes, Gene 83464): -0.243; RASSF5 log2FC (Apoptosis genes, Gene 83593): -0.099; SOX7 log2FC (Apoptosis genes, Gene 83595): -0.149; BCL2L12 log2FC (Apoptosis genes, Gene 83596): -0.182; ITCH log2FC (Apoptosis genes, Gene 83737): 0.449; CDCA7 log2FC (Apoptosis genes, Gene 83879): -0.061; TATDN1 log2FC (Apoptosis genes, Gene 83940): 0.554; TM2D1 log2FC (Apoptosis genes, Gene 83941): 0.055; OBSCN log2FC (Apoptosis genes, Gene 84033): 0.392; TRAF7 log2FC (Apoptosis genes, Gene 84231): -0.080; RHBDD1 log2FC (Apoptosis genes, Gene 84236): -0.425; TCHP log2FC (Apoptosis genes, Gene 84260): 0.283; ZDHHC16 log2FC (Apoptosis genes, Gene 84287): -0.316; ING5 log2FC (Apoptosis genes, Gene 84289): -0.961; AKT1S1 log2FC (Apoptosis genes, Gene 84335): -0.610; CARD11 log2FC (Apoptosis genes, Gene 84433): 0.185; SYVN1 log2FC (Apoptosis genes, Gene 84447): 0.495; ZC3H8 log2FC (Apoptosis genes, Gene 84524): 1.375; FNDC1 log2FC (Apoptosis genes, Gene 84624): -0.079; CARD6 log2FC (Apoptosis genes, Gene 84674): 0.035; HINT2 log2FC (Apoptosis genes, Gene 84681): 0.122; BEX2 log2FC (Apoptosis genes, Gene 84707): 0.833; TNS4 log2FC (Apoptosis genes, Gene 84951): -1.157; ATG4D log2FC (Apoptosis genes, Gene 84971): -0.288; SCRT2 log2FC (Apoptosis genes, Gene 85508): -0.600; WNT3A log2FC (Apoptosis genes, Gene 89780): -0.352; FGD3 log2FC (Apoptosis genes, Gene 89846): 0.895; UNC5A log2FC (Apoptosis genes, Gene 90249): -0.397; BMF log2FC (Apoptosis genes, Gene 90427): 2.201; MTDH log2FC (Apoptosis genes, Gene 92140): 0.308; TIMM50 log2FC (Apoptosis genes, Gene 92609): -0.337; TP53INP1 log2FC (Apoptosis genes, Gene 94241): 0.890; EGLN2 log2FC (Apoptosis genes, Gene 112398): 0.419; EGLN3 log2FC (Apoptosis genes, Gene 112399): -0.441; PNMA5 log2FC (Apoptosis genes, Gene 114824): 0.611; SLC5A11 log2FC (Apoptosis genes, Gene 115584): 0.170; TWIST2 log2FC (Apoptosis genes, Gene 117581): -0.613; RFFL log2FC (Apoptosis genes, Gene 117584): -0.445; FGD4 log2FC (Apoptosis genes, Gene 121512): 0.646; RXFP2 log2FC (Apoptosis genes, Gene 122042): -0.012; DCUN1D3 log2FC (Apoptosis genes, Gene 123879): -0.855; ACVR1C log2FC (Apoptosis genes, Gene 130399): 0.413; IL31RA log2FC (Apoptosis genes, Gene 133396): 0.067; JMY log2FC (Apoptosis genes, Gene 133746): 1.008; UNC5D log2FC (Apoptosis genes, Gene 137970): 0.036; DYNLL2 log2FC (Apoptosis genes, Gene 140735): -0.654; PSMA8 log2FC (Apoptosis genes, Gene 143471): 0.074; TICAM1 log2FC (Apoptosis genes, Gene 148022): -0.334; BNIPL log2FC (Apoptosis genes, Gene 149428): -0.016; ZSWIM2 log2FC (Apoptosis genes, Gene 151112): -0.00651; DAB2IP log2FC (Apoptosis genes, Gene 153090): 0.029; SLC5A8 log2FC (Apoptosis genes, Gene 160728): -0.019; PTCRA log2FC (Apoptosis genes, Gene 171558): -0.229; HIGD2A log2FC (Apoptosis genes, Gene 192286): -0.188; FLCN log2FC (Apoptosis genes, Gene 201163): 0.778; HIPK1 log2FC (Apoptosis genes, Gene 204851): -0.082; UNC5B log2FC (Apoptosis genes, Gene 219699): -0.706; RNF152 log2FC (Apoptosis genes, Gene 220441): -0.049; FGD2 log2FC (Apoptosis genes, Gene 221472): -0.083; MPV17L log2FC (Apoptosis genes, Gene 255027): -0.431; TMEM23 log2FC (Apoptosis genes, Gene 259230): 0.281; MAGI3 log2FC (Apoptosis genes, Gene 260425): 0.313; BLOC1S2 log2FC (Apoptosis genes, Gene 282991): 0.288; NRBP2 log2FC (Apoptosis genes, Gene 340371): -0.00243; NANOS3 log2FC (Apoptosis genes, Gene 342977): 0.015; AMIGO2 log2FC (Apoptosis genes, Gene 347902): 0.458; C6orf120 log2FC (Apoptosis genes, Gene 387263): -0.573; GDF6 log2FC (Apoptosis genes, Gene 392255): -0.024; MYO18A log2FC (Apoptosis genes, Gene 399687): -0.274; PRAMEF3 log2FC (Apoptosis genes, Gene 401940): -0.384; ADIPOQ log2FC (Apoptosis genes, Gene 414149): -0.263; PIM3 log2FC (Apoptosis genes, Gene 415116): 0.644; LGALS7 log2FC (Apoptosis genes, Gene 653499): -0.246; CARD9 log2FC (Apoptosis genes, Gene 728489): -0.430; PDCD6 log2FC (Apoptosis genes, Gene 728613): -0.273; RRN3 log2FC (Apoptosis genes, Gene 730092): 0.522; CD24 log2FC (Apoptosis genes, Gene 100133941): 0.117; ACVR1 log2FC (Gene 90, cell cycle genes): 0.55; ACVR1B log2FC (Gene 91, cell cycle genes): -0.21; ADCYAP1 log2FC (Gene 116, cell cycle genes): 0.0422; AHR log2FC (Gene 196, cell cycle genes): 0.78; AIF1 log2FC (Gene 199, cell cycle genes): -0.0247; AK1 log2FC (Gene 203, cell cycle genes): -0.25; AKT1 log2FC (Gene 207, cell cycle genes): -0.58; AKT2 log2FC (Gene 208, cell cycle genes): -0.41; ALOX15B log2FC (Gene 247, cell cycle genes): -0.00234; ANK3 log2FC (Gene 288, cell cycle genes): 0.62; ANXA1 log2FC (Gene 301, cell cycle genes): 0.80; ANXA11 log2FC (Gene 311, cell cycle genes): -0.16; APBB1 log2FC (Gene 322, cell cycle genes): 0.36; APBB2 log2FC (Gene 323, cell cycle genes): -0.18; APEX1 log2FC (Gene 328, cell cycle genes): 0.12; BIRC2 log2FC (Gene 329, cell cycle genes): -0.34; APP log2FC (Gene 351, cell cycle genes): 0.33; ARF6 log2FC (Gene 382, cell cycle genes): -0.57; RHOB log2FC (Gene 388, cell cycle genes): -0.10; RHOC log2FC (Gene 389, cell cycle genes): -0.37; ARL2 log2FC (Gene 402, cell cycle genes): 0.09; ARL3 log2FC (Gene 403, cell cycle genes): 0.06; ASNS log2FC (Gene 440, cell cycle genes): -0.39; BACH1 log2FC (Gene 571, cell cycle genes): 0.78; BARD1 log2FC (Gene 580, cell cycle genes): 0.34; BBS4 log2FC (Gene 585, cell cycle genes): 0.84; CCND1 log2FC (Gene 595, cell cycle genes): -1.53; BCL2 log2FC (Gene 596, cell cycle genes): -0.34; BCL2L1 log2FC (Gene 598, cell cycle genes): -0.92; BCR log2FC (Gene 613, cell cycle genes): -0.81; BID log2FC (Gene 637, cell cycle genes): -0.26; BMP2 log2FC (Gene 650, cell cycle genes): -0.23; BMP7 log2FC (Gene 655, cell cycle genes): -0.32; DST log2FC (Gene 667, cell cycle genes): 0.55; BRCA1 log2FC (Gene 672, cell cycle genes): 0.74; BRDT log2FC (Gene 676, cell cycle genes): -0.0232; BUB1 log2FC (Gene 699, cell cycle genes): 0.59; CALM1 log2FC (Gene 801, cell cycle genes): 0.07; CALR log2FC (Gene 811, cell cycle genes): -0.16; CAMK2A log2FC (Gene 815, cell cycle genes): 0.03; CAMK2D log2FC (Gene 817, cell cycle genes): 0.78; CAMK2G log2FC (Gene 818, cell cycle genes): 0.66; CASP2 log2FC (Gene 835, cell cycle genes): -0.76; CAV2 log2FC (Gene 858, cell cycle genes): 0.93; RUNX3 log2FC (Gene 864, cell cycle genes): -0.36; CCNA2 log2FC (Gene 890, cell cycle genes): -0.08; CCNB1 log2FC (Gene 891, cell cycle genes): -0.13; CCNC log2FC (Gene 892, cell cycle genes): -0.10; CCND2 log2FC (Gene 894, cell cycle genes): -1.30; CCND3 log2FC (Gene 896, cell cycle genes): -0.73; CCNE1 log2FC (Gene 898, cell cycle genes): -0.63; CCNG1 log2FC (Gene 900, cell cycle genes): 0.46; CCNG2 log2FC (Gene 901, cell cycle genes): 3.91; CD28 log2FC (Gene 940, cell cycle genes): 0.0361; CDC5L log2FC (Gene 988, cell cycle genes): 0.88; CDC6 log2FC (Gene 990, cell cycle genes): -0.98; CDC20 log2FC (Gene 991, cell cycle genes): -0.31; CDC25A log2FC (Gene 993, cell cycle genes): -2.03
